The IC50 is the concentration needed to halve the response being measured. Low values mean higher potency, high ones lower potency.

In BindingDB's records for patent US10196374 (Astrazeneca, 2019) one finds IC50 data, which are given here for one compound.

The target in this assay is T1, Glucocorticoid receptor (Homo sapiens, UniProt P04150).
T1 sequence (P04150 whole entry): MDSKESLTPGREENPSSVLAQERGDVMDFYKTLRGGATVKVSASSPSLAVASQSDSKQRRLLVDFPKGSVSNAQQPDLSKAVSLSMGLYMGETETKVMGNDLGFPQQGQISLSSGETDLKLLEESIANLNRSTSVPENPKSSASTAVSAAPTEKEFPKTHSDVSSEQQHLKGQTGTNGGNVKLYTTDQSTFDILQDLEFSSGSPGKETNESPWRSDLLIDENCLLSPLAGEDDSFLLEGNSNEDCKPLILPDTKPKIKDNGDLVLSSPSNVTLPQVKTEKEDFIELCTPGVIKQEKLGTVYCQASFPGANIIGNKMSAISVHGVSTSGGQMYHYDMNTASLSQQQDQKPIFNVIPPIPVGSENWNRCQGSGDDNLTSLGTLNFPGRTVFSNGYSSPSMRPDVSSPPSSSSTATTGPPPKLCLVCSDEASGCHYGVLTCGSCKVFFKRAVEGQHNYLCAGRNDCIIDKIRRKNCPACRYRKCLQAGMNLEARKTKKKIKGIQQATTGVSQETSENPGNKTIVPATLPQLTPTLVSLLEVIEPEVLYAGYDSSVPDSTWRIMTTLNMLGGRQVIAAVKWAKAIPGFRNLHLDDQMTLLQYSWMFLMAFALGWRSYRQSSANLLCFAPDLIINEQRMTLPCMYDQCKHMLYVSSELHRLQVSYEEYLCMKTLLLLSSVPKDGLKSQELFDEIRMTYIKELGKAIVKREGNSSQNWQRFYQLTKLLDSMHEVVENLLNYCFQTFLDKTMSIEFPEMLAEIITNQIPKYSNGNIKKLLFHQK
Nature of the assay: GRE Antagonist Assay. An excerpt: The generated cell line allows for identification of compounds showing antagonist activity at the human glucocorticoid receptor (GR) via reduction of LacZ gene expression. Dexamethasone-activated GR binds to the Glucocorticoid Response Element (GRE) in the promoter of the LacZ gene and transcription is initiated.

The compound `CC(C)[C@H](NC(=O)C(C)(F)F)[C@H](Oc1ccc2c(cnn2-c2ccc(=O)n(C)c2)c1)c1ccccc1` [US10196374, Example 1] displayed an IC50 of 158 nM.
